Calls of active or inactive are those of the source. The rule behind the calls is not given here.
What was measured:
MCF7 = experiment: Antitumor activity against human MCF7 cells xenografted in nu/nu BALB/c mouse assessed as tumor growth inhibition at 30 mg/kg, ip qd for 12 days measured on day 36 relative to control; type: functional; conditions: route intraperitoneal, read-out: GI
PC-3M = experiment: Cytotoxicity against human PC3M cells after 72 hrs by MTT assay; type: functional, cell-based
A-431 = experiment: Cytotoxicity against human A431 cells after 72 hrs by MTT assay; type: functional, cell-based
IGROV-1 = experiment: Growth inhibition of human IGROV1 cells after 48 hrs by sulforhodamine B assay; type: functional; conditions: IGROV-1, 48 h
A2780 = experiment: Cytotoxicity against human A2780 cells after 72 hrs by MTT assay; type: functional, cell-based
T47D = experiment: Growth inhibition of human T47D cells after 48 hrs by sulforhodamine B assay; type: functional
UO-31 = experiment: Growth inhibition of human UO31 cells after 48 hrs by sulforhodamine B assay; type: functional; conditions: UO-31, 48 h
Mus musculus [1] = experiment: Antimetastatic activity against mouse 4T1 cells xenografted in BALB/c mouse assessed as reduction of CCL2 mRNA expression in tumor at 5 mg/kg, ip qd for 23 days by RT-PCR analysis; type: functional, organism-based; set-up: dose 5 mg/kg
RXF 393 = experiment: Growth inhibition of human RXF393 cells after 48 hrs by sulforhodamine B assay; type: functional; conditions: RXF 393, 48 h
Mus musculus [2] = experiment: Toxicity in human cancer cells xenografted in nu/nu BALB/c mouse assessed as mortality at 5 to 30 mg/kg, ip qd for 24 days; type: organism-based, Cancer cell lines; set-up: dose 5-30 mg/kg, route intraperitoneal; conditions: in vivo, 576 h
MDA-MB-231 [3] = experiment: Antitumor activity against human MDA-MB-231 cells xenografted in nu/nu BALB/c mouse assessed as tumor growth inhibition at 20 mg/kg, ip qd for 24 days measured on day 25 relative to control; type: functional; conditions: MDA-MB-231, ip, route intraperitoneal, read-out: GI
MDA-MB-231 [4] = experiment: Antitumor activity against human MDA-MB-231 cells xenografted in nu/nu BALB/c mouse assessed as tumor growth inhibition at 15 mg/kg, ip qd for 24 days measured on day 25 relative to control; type: functional; conditions: MDA-MB-231, ip, route intraperitoneal, read-out: GI
Mus musculus [5] = experiment: Toxicity in mouse 4T1 cells xenografted […] mouse assessed as decrease in body weight at 2.5 to 10 mg/kg, ip qd for 28 days; type: organism-based; set-up: dose 2.5-10 mg/kg, route intraperitoneal; conditions: in vivo, 672 h
MDA-MB-231 [6] = experiment: Growth inhibition of human MDA-MB-231 cells after 48 hrs by sulforhodamine B assay; type: functional; conditions: MDA-MB-231, 48 h
786-0 = experiment: Growth inhibition of human 786-0 cells after 48 hrs by sulforhodamine B assay; type: functional; conditions: 786-0, 48 h
4T1 [7] = experiment: Antitumor activity against mouse 4T1 cells xenografted in […] mouse assessed as tumor growth inhibition at 10 mg/kg, ip qd for 28 days relative to control; type: functional; conditions: 4T1, ip, 672 h, route intraperitoneal, read-out: GI
OVCAR-8 = experiment: Growth inhibition of human OVCAR8 cells after 48 hrs by sulforhodamine B assay; type: functional; conditions: OVCAR-8, 48 h
SNB-75 = experiment: Growth inhibition of human SNB75 cells after 48 hrs by sulforhodamine B assay; type: functional; conditions: SNB-75, 48 h
HCT-116 = experiment: Growth inhibition of human HCT116 cells after 48 hrs by sulforhodamine B assay; type: functional; conditions: HCT-116, 48 h
HeLa = experiment: Cytotoxicity against human HeLa cells after 72 hrs by MTT assay; type: functional, cell-based
UACC-62 = experiment: Growth inhibition of human UACC62 cells after 48 hrs by sulforhodamine B assay; type: functional; conditions: UACC-62, 48 h
COLO 205 = experiment: Growth inhibition of human COLO205 cells after 48 hrs by sulforhodamine B assay; type: functional; conditions: COLO 205, 48 h
BGC-823 = experiment: Cytotoxicity against human BGC823 cells after 72 hrs by MTT assay; type: functional, cell-based
KETR3 = experiment: Cytotoxicity against human Ketr3 cells after 72 hrs by MTT assay; type: functional, cell-based
Mus musculus [8] = experiment: Antimetastatic activity against mouse 4T1 cells xenografted in BALB/c mouse assessed as reduction of MMP9 mRNA expression in tumor at 5 mg/kg, ip qd for 23 days by RT-PCR analysis; type: functional, organism-based; set-up: dose 5 mg/kg
Mus musculus [9] = experiment: Toxicity in human cancer cells xenografted in nu/nu BALB/c mouse assessed as side effects at 5 to 30 mg/kg, ip qd for 24 days; type: organism-based, Cancer cell lines; set-up: dose 5-30 mg/kg, route intraperitoneal; conditions: in vivo, 576 h
Mus musculus [10] = experiment: Antimetastatic activity against mouse 4T1 cells xenografted in BALB/c mouse assessed as reduction of myeloid derived suppressor cells accumulation in spleen at 5 mg/kg, ip qd for 23 days by flow cytometry analysis relative to control; type: functional; set-up: scale not given: the % may be the effect or the level left; conditions: route intraperitoneal
Mus musculus [11] = experiment: Toxicity in mouse LLC cells xenografted C57BL/6 mouse assessed as decrease in body weight at 10 mg/kg, ip qd for 15 days; type: organism-based; set-up: dose 10 mg/kg, route intraperitoneal; conditions: in vivo, 360 h
NCI-H460 [12] = experiment: Growth inhibition of human NCI-H460 cells after 48 hrs by sulforhodamine B assay; type: functional; conditions: NCI-H460, 48 h
SF-539 = experiment: Growth inhibition of human SF539 cells after 48 hrs by sulforhodamine B assay; type: functional; conditions: SF-539, 48 h
KB = experiment: Cytotoxicity against human KB cells after 72 hrs by MTT assay; type: functional, cell-based
M14 = experiment: Growth inhibition of human M14 cells after 48 hrs by sulforhodamine B assay; type: functional; conditions: M14, 48 h
[13] = Growth inhibition of human Hs 578T cells after 48 hrs by sulforhodamine B assay; type: functional
NCI-H460 [14] = experiment: Antitumor activity against human H460 cells xenografted in nu/nu BALB/c mouse assessed as tumor growth inhibition at 5 mg/kg, ip qd for 24 days measured on day 25 relative to control; type: functional; conditions: route intraperitoneal, read-out: GI
4T1 [15] = experiment: Antitumor activity against mouse 4T1 cells xenografted in […] mouse assessed as tumor growth inhibition at 2.5 mg/kg, ip qd for 28 days relative to control; type: functional; conditions: 4T1, ip, 672 h, route intraperitoneal, read-out: GI
SF-295 = experiment: Growth inhibition of human SF295 cells after 48 hrs by sulforhodamine B assay; type: functional; conditions: SF-295, 48 h
MDA-MB-468 = experiment: Growth inhibition of human MDA-MB-468 cells after 48 hrs by sulforhodamine B assay; type: functional; conditions: MDA-MB-468, 48 h
OVCAR-3 = experiment: Growth inhibition of human OVCAR3 cells after 48 hrs by sulforhodamine B assay; type: functional; conditions: OVCAR-3, 48 h
LOX IMVI = experiment: Growth inhibition of human LOXIMVI cells after 48 hrs by sulforhodamine B assay; type: functional
OVCAR-5 = experiment: Growth inhibition of human OVCAR5 cells after 48 hrs by sulforhodamine B assay; type: functional; conditions: OVCAR-5, 48 h
NCI-H226 = experiment: Growth inhibition of human NCI-H226 cells after 48 hrs by sulforhodamine B assay; type: functional; conditions: NCI-H226, 48 h
Mus musculus [16] = experiment: Antimetastatic activity against mouse 4T1 cells xenografted in BALB/c mouse assessed as reduction of TGFbeta mRNA expression in tumor at 5 mg/kg, ip qd for 23 days by RT-PCR analysis; type: functional, organism-based; set-up: dose 5 mg/kg

CC(=O)O[C@H]1C(=O)[C@@]2(C)[C@H]([C@H](OC(=O)c3ccccc3)[C@]3(O)C[C@H](OC(=O)[C@H](OC(=O)CCC(=O)NCCCC[C@H](NC(=O)CC[C@H](NC(=O)[C@H](C)NC(=O)/C=C/c4ccc(Cl)cc4)C(N)=O)C(N)=O)[C@H](NC(=O)c4ccccc4)c4ccccc4)C(C)=C1C3(C)C)[C@]1(OC(C)=O)CO[C@@H]1C[C@@H]2O
inhibition in vivo at 30 mg/kg (MCF7): 100% | Activity (PC-3M): Active | Activity (A-431): Active | GI50 (IGROV-1): < 10 nM | Activity (A2780): Active | GI50 (T47D): < 10 nM | GI50 (UO-31): < 10 nM | Activity (Mus musculus [1]): Active | GI50 (RXF 393): < 10 nM | Activity (Mus musculus [2]): Non-toxic | inhibition in vivo at 20 mg/kg (MDA-MB-231 [3]): 72.2% | inhibition in vivo at 15 mg/kg (MDA-MB-231 [4]): 57.4% | Activity (Mus musculus [5]): Non-toxic | GI50 (MDA-MB-231 [6]): < 10 nM | GI50 (786-0): < 10 nM | inhibition in vivo at 10 mg/kg (4T1 [7]): 45.9% | GI50 (OVCAR-8): < 10 nM | GI50 (SNB-75): < 10 nM | GI50 (HCT-116): < 10 nM | Activity (HeLa): Active | GI50 (UACC-62): < 10 nM | GI50 (COLO 205): < 10 nM | Activity (BGC-823): Active | Activity (KETR3): Active | Activity (Mus musculus [8]): Active | Activity (Mus musculus [9]): Non-toxic | Activity (Mus musculus [10]): 22% | Activity (Mus musculus [11]): Non-toxic | GI50 (NCI-H460 [12]): < 10 nM | GI50 (SF-539): < 10 nM | Activity (KB): Active | GI50 (M14): < 10 nM | GI50 [13]: < 10 nM | inhibition in vivo at 5 mg/kg (NCI-H460 [14]): 2.15% | inhibition in vivo at 2.5 mg/kg (4T1 [15]): 27.4% | GI50 (SF-295): < 10 nM | GI50 (MDA-MB-468): < 10 nM | GI50 (OVCAR-3): < 10 nM | GI50 (LOX IMVI): < 10 nM | GI50 (OVCAR-5): < 10 nM | GI50 (NCI-H226): < 10 nM | Activity (Mus musculus [16]): Active

Reference: ChEMBL document CHEMBL1773045, “Conjugate (MTC-220) of muramyl dipeptide analogue and paclitaxel prevents both tumor growth and metastasis in mice” (J Med Chem, 2011)
